Source: patent US20230332245A1, “Complement as Prognostic and Predictive Biomarker and Potential Therapeutic Target in Renal Cell Carcinoma” (Texas Tech University System, priority 2020, published 2023)

Legend:
Assay type in all cases: in vivo, mouse
[1] = tested on: genes associated with T cell exhaustion; proangiogenic genes; experiment: Real time quantitative PCR of gene expression in Renca tumors; details: relative to placebo; FIG. 6K
Description: (§1) Mouse studies were approved by the Institutional Animal Care and Use Committee of the Texas Tech University Health Sciences Center. Eight to twelve weeks old BALB/c, C3ar1, and C5ar1 knockout mice from the Jackson Laboratory were injected s.c. with 1×10^6 Renca cells (ATCC® CRL2947™). When tumors reached ˜5 mm in diameter mice were assigned to treatment cohorts and treated with, C3aR1 inhibitor SB 290157 (Sigma-Aldrich, 10 mg/kg i.p. twice a day), C5aR1 inhibitor PMX53 [17] (1 mg/kg, i.p. every other day), or PD-1 antibody (RMP1-14, BE-0146, Bio X Cell, 250 μg per mouse i.p. every 4 days), or RaIgG2a isotype control (BE-0089, Bio X Cell, 250 μg i.p. every 4 days), as previously described. CD8^+ T cells were depleted by intraperitoneal (i.p.) injection of 200 μg of CD8a-neutralizing antibody (2.43, Bio X cell, NH) per mouse, each day, for three consecutive days, prior to injecting tumor cells. […] BALB/c control mice were treated in the same manner with rat IgG2b (LTF-2, Bio X cell).
RNA was extracted from frozen tissue using RNeasy plus mini kit (Qiagen) and cDNA was generated using High-Capacity RNA-to-cDNA™ kit (Applied Biosystems). […] Relative expression was calculated using the 2^−ΔΔCt method and RT2 profiler PCR Array Data Analysis (SAB Biosciences) and normalized to GAPDH.

Renca cells = experiment: Tumor growth in anti-PD-1-recalcitrant Renca model of RCC; details: BALB/c mice, s.c. Renca tumors; vs placebo (PBS) or isotype IgG; FIG. 6A, 6C
Description: as §1
To test in vivo the role of complement proteins, the inventors used RCC-Renca (ATCC® CRL-2947™), a murine RCC model that while differing from human RCC, has been extensively evaluated in immunotherapy studies and is known to be recalcitrant to ICI [34], and therefore, potentially resembles ICI-resistant RCC. […]

[2] = tested on: CD8^+ T cells in tumors (TIL); experiment: Flow cytometry of CD8+ T cells (TIL) and IFN-γ expressing TIL in Renca tumors
Description: Mouse studies were approved by the Institutional Animal Care and Use Committee of the Texas Tech University Health Sciences Center. Eight to twelve weeks old BALB/c, C3ar1, and C5ar1 knockout mice from the Jackson Laboratory were injected s.c. with 1×10^6 Renca cells (ATCC® CRL2947™). When tumors reached ˜5 mm in diameter mice were assigned to treatment cohorts and treated with, C3aR1 inhibitor SB 290157 (Sigma-Aldrich, 10 mg/kg i.p. twice a day), C5aR1 inhibitor PMX53 [17] (1 mg/kg, i.p. every other day), or PD-1 antibody (RMP1-14, BE-0146, Bio X Cell, 250 μg per mouse i.p. every 4 days), or RaIgG2a isotype control (BE-0089, Bio X Cell, 250 μg i.p. every 4 days), as previously described. […]
Cells from tumors were pre-incubated with CD16/32 antibody (Fc block; 2.4G2; BD Pharmingen) and stained with fluorochrome-conjugated antibodies from Biolegend: BV605-CD45 (30-F11), AF700-CD3 (17A2), PerCP/Cy5.5-CD4 (GK1.5), and PE/Cy7-CD8α (53-6.7) as recommended by the manufacturer. To quantify IFN-γ expression, cells were stained with surface markers and permeabilized with Cytofix/Cytoperm (554714, BD Biosciences), and washed with 1× Perm/Wash buffer (554714, BD Biosciences) followed by incubation with PE-IFN-γ (XMG1.2, Biolegend). […] Data were acquired on BD Fortessa and analyzed with FlowJo software (Tree Star).

Row | Molecule | expression of genes associated with T cell exhaustion (Pdcd1, Ctla4, Btla, Fas, Stat3) in tumors [1] | tumor growth (tumor volumes) (Renca cells) | recruitment of CD8+ T cells to tumors (TIL) ([2]; FACS, FIG. 6D, 6F) | TIL function: production of IFN-γ upon ex-vivo restimulation ([2]; FACS after CD3/CD28 restimulation, FIG. 6G-6J)
1 | PMX53 | reduction in the expression | reduced tumor growth | influx CD8^+ T cells to tumors | –
2 | NC(N)=NCCC[C@H](NC(=O)COCC(c1ccccc1)c1ccccc1)C(=O)O [SB290157] | Btla and Fas were upregulated | reduced tumor growth | – | highest production of IFN-γ
